The text below walks through data of ChEMBL document CHEMBL5241057, “Outline of gelatinase inhibitors as anti-cancer agents: A patent mini-review for 2010-present” (Eur J Med Chem, 2021).

The target of test [1] is T1, 72 kDa type IV collagenase (Homo sapiens, UniProt P08253). Nature of the test: Inhibition of MMP2 (unknown origin) assessed as inhibition constant.
For test [2], the target named is T2, Matrix metalloproteinase-9 (Homo sapiens, UniProt P14780). Description: Inhibition of MMP9 (unknown origin) assessed as inhibition constant.
Test [3] addresses T1, 72 kDa type IV collagenase. Nature of the test: Inhibition of MMP2 (unknown origin).
In test [4] the target is T2, Matrix metalloproteinase-9. Description: Inhibition of MMP9 (unknown origin).
In test [5] the target is T3, Matrilysin (Homo sapiens, UniProt P09237).
T3 sequence (P09237 whole entry): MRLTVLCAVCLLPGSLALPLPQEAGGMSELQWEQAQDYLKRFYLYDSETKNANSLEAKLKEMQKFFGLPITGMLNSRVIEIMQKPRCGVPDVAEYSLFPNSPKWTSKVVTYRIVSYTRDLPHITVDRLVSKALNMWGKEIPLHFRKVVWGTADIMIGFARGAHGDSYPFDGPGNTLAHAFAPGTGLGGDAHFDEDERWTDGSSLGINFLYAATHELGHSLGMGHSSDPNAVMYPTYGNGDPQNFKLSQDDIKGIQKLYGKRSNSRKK
Description: Inhibition of MMP7 (unknown origin) assessed as inhibition constant.

Test [6] relates to B16-BL6. Nature of the test: Antimetastatic activity in mouse implanted with mouse B16-BL6 cells assessed as inhibition of lung metastasis at 2.5 mg/kg relative to control. The test is classed as functional. More on the design: scale not given: the % may be the effect or the level left.
The subject of test [7] is B16-BL6. Description: Antimetastatic activity in mouse implanted with mouse B16-BL6 cells assessed as inhibition of lung metastasis at 5 mg/kg relative to control. The test is classed as functional. More on the design: scale not given: the % may be the effect or the level left.
The subject of test [8] is B16-BL6. Description: Antimetastatic activity in mouse implanted with mouse B16-BL6 cells assessed as inhibition of lung metastasis at 7.5 mg/kg relative to control. The test is classed as functional. Details: scale not given: the % may be the effect or the level left.
The target in test [9] is Macrophage metalloelastase (Homo sapiens, UniProt P39900). Description: Inhibition of MMP12 (unknown origin).
Test [10] concerns the target T2, Matrix metalloproteinase-9. Description: Inhibition of MMP9 (unknown origin) assessed as dissociation constant.
The next test has as its target Neutrophil collagenase (Homo sapiens, UniProt P22894). Nature of the test: Inhibition of MMP8 (unknown origin).
Test [11] addresses T3, Matrilysin. Nature of the test: Inhibition of MMP7 (unknown origin).
For test [12], the target named is Matrix metalloproteinase-14 (Homo sapiens, UniProt P50281). Nature of the test: Inhibition of MMP14 (unknown origin).

The structures appear in SMILES notation. Where a SMILES comes first, the peptide text is derived from it. [ ]: non-standard residue; d: D form. The star is where a group is joined. ξ: configuration not given here. Pro(trans-4-F) = O=C(O)[C@@H]1C[C@@H](F)CN1; NMeIle(3ξ) = CCC(C)[C@H](NC)C(=O)O; Dab = NCC[C@H](N)C(=O)O; Hexanoyl = CCCCCC(=O)*; Bz = O=C(c1ccccc1)*; NHOH = ON*

T2 sequence (P14780 whole entry): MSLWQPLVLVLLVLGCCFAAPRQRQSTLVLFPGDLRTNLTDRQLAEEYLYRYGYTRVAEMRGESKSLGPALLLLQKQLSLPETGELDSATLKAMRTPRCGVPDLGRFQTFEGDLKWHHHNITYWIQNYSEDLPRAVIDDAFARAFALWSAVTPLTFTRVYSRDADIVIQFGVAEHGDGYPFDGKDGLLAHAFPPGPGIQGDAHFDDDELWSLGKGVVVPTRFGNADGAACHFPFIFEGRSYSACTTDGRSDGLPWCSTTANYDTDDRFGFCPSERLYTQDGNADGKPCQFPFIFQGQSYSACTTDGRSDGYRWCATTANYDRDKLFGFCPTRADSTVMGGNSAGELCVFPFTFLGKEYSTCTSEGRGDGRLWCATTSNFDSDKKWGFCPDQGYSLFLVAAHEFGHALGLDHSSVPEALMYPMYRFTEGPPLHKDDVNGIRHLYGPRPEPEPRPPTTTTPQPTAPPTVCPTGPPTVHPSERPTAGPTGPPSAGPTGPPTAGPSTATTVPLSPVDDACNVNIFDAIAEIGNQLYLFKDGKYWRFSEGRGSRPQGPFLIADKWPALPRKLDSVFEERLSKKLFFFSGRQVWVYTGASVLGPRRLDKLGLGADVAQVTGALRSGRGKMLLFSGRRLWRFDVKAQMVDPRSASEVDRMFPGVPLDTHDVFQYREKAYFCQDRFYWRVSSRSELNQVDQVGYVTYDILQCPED
T1 sequence (P08253 whole entry): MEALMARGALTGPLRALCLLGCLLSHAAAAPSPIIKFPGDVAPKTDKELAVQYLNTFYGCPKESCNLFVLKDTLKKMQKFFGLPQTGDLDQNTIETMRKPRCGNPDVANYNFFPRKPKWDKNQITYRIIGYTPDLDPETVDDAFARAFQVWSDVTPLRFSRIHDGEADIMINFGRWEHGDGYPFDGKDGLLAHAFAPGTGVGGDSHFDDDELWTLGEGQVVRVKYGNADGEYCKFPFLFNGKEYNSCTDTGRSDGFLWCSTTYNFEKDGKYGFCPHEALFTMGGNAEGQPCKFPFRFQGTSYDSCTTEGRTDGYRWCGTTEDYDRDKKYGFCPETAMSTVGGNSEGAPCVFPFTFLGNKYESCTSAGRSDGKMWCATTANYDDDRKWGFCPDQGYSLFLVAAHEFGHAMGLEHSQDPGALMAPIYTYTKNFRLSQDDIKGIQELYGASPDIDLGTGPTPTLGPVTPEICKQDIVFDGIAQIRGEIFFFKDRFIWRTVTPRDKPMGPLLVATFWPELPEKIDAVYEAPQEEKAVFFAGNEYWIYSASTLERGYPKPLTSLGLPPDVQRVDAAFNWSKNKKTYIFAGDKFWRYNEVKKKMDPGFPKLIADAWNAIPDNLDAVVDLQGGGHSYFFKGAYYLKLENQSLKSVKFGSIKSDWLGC
Chain of Macrophage metalloelastase (P39900 whole entry): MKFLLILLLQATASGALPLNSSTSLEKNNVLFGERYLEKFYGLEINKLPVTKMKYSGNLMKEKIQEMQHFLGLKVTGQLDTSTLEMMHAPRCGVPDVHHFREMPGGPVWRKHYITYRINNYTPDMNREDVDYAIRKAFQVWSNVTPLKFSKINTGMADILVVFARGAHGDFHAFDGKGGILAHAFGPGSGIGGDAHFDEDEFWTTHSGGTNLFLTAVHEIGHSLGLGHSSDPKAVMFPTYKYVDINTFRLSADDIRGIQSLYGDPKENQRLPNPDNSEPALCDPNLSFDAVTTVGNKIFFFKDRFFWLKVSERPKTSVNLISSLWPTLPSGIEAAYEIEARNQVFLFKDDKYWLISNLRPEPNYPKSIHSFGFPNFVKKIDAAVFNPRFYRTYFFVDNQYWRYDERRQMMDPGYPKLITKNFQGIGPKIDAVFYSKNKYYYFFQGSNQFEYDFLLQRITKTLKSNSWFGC
Chain of Neutrophil collagenase (P22894 whole entry): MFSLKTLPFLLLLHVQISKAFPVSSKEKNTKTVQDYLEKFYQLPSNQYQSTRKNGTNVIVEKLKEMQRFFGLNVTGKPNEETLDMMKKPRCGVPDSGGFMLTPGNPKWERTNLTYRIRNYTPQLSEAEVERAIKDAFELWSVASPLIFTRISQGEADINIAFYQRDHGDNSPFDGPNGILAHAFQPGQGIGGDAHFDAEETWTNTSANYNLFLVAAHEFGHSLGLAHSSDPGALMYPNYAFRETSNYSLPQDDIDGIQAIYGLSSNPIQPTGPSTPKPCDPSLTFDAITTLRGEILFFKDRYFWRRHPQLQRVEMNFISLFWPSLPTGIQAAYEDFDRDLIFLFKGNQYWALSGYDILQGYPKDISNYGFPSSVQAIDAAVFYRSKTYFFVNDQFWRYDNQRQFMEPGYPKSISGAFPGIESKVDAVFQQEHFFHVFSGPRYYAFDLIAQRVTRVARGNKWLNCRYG

For `CN([C@H]1CN(C(N)=O)C[C@@H]1S)S(=O)(=O)c1ccc(Oc2ccccc2)cc1`, the half-inhibitory concentration (IC50) (commonly the concentration that gives 50% inhibition) was determined as 2.3 nM in test [1] and 1.3 nM in test [2].

As to `NCCCCCC(=O)N1C[C@H](NS(=O)(=O)c2ccc(Oc3ccccc3)cc2)[C@@H](S)C1`, the IC50 was 2.2 nM in [1] and 2.3 nM in test [2].

As for `NCc1ccc(Oc2ccc(S(=O)(=O)CC3CS3)cc2)cc1` (centres undefined), the IC50 in [3] worked out at 85 nM.

Regarding `CS(=O)(=O)Nc1ccc(Oc2ccc(S(=O)(=O)CC3CS3)cc2)cc1` (centres undefined), in [2], the IC50 is 80 nM.

Compound `CC(=O)NCc1ccc(Oc2ccc(S(=O)(=O)CC3CS3)cc2)cc1` (centres undefined) came in with an IC50 in test [3] of 234 nM.

In [3], `O=C(NO)C1(S(=O)(=O)c2ccc(-n3cc(-c4ccc(-c5ccncc5)cc4)nn3)cc2)CCOCC1` showed an IC50 of 0.23 nM.

For the compound `CN(C)c1ccc(-c2cn(-c3ccc(S(=O)(=O)NC(Cc4ccccc4)C(=O)NO)cc3)nn2)cc1` (centres undefined), the IC50 in test [3] came out at 0.22 nM; in test [4], 1 nM. For the same compound, the Ki (as a rule, the dissociation constant of the complex between target and ligand, obtained from inhibition or displacement) at Matrilysin [5] stood at 116000 nM.

Turning to `C[C@@H]1O[C@@H](O[C@H]2[C@H](O[C@H]3CC[C@@]4(C)C(CC[C@]5(C)C4CC=C4C6CC(C)(C)CC[C@]6(C(=O)O)CC[C@]45C)[C@]3(C)COC(=O)[C@]3(O)C[C@@H](O)[C@@H](O)[C@H](OC(=O)/C=C/c4ccc(O)c(O)c4)C3)OC[C@H](O)[C@@H]2O)[C@H](O)[C@H](O)[C@H]1O` (some centres undefined), the IC50 in test [3] turned out to be 6230 nM; in [4], 7050 nM. Moreover, the values for the Activity in the test on B16-BL6 [6], in the test with B16-BL6 [7] and in the test on B16-BL6 [8] were 43.5%, 52.9% and 75.2%, respectively.

For the compound `CCc1ccc(-c2cc(-c3ccc(S(=O)(=O)N[C@H](C(=O)O)C(C)C)cc3)no2)s1`, the figures for the IC50 in test [3], in test [4] and in test [9] were 0.065 nM, 0.29 nM and 0.566 nM, respectively.

In turn, `Cc1nc2ccccc2n(CC(=O)NN/C=C\c2cccc([N+](=O)[O-])c2)c1=O` had an IC50 in [3] of 2010 nM.

`NS(=O)(=O)c1cc(C(=O)c2ccc3c(-c4ccccc4)c[nH]c3c2)ccc1Cl`: half-maximal inhibition in test [3] (IC50) was put at 53 nM.

`Cc1ccc(NCC(=O)[C@@H](Cc2ccccc2)NC(=O)Cn2c(=O)c(C)nc3ccccc32)cc1` had a 50% inhibitory concentration (IC50) in test [3] of 10500 nM.

As for `COC(=O)Cc1ccc(Oc2ccc(S(=O)(=O)CC3CS3)cc2)cc1` (centres undefined), in [2], the Ki amounted to 180 nM.

For the compound `O=C(CCCSc1nc(=O)c2ccccc2[nH]1)Nc1nc2ccccc2[nH]1`, the IC50 in [10] came to 300 nM.

As for `CC(C)c1noc([C@@H](NC(=O)[C@H](CC2CCCC2)[C@H](O)C(=O)NO)C(C)(C)C)n1`, the IC50 in test [4] is less than 100 nM.

`NCc1nc(-c2ccc(Oc3ccc(S(=O)(=O)CC4CS4)cc3)cc2)no1` (centres undefined) gave an IC50 in [3] of 630 nM.

As to `Cc1ccc(-c2cc(-c3ccc(S(=O)(=O)N[C@H](C(=O)O)C(C)C)cc3)no2)s1`, the IC50 turned out to be 0.0449 nM in [3], 0.34 nM in test [4], 0.567 nM against Neutrophil collagenase and 0.368 nM in [9].

As to `CCCCCC(=O)N1C[C@H](F)C[C@H]1C(=O)N(C)[C@H](C(=O)N[C@@H](CCNC(=O)c1ccccc1)C(=O)NO)C(C)CC` (stereo partly drawn) (Hexanoyl-[Pro(trans-4-F)]-[NMeIle(3ξ)]-[Dab](Bz)-{NHOH}), the IC50 in test [3] is less than 1 nM.

As for `CC(C)=CCc1cc(/C=C/C(=O)O)cc(CC=C(C)C)c1O` [ARTEPILLIN], the IC50 in [3] stood at 3100 nM; at Matrilysin [11], 320000 nM; in test [12], 350000 nM.
